According to EP0038629A1, “Virazole derivatives, process for their preparation and use as antiviral agents” (priority 1980, dated 1981):

What was measured:
[1] = system: influenza A/Port Chalmers/1/73 (H3N2) virus; assay: Plaque reduction assay; format: cell-based; details: MDCK cells; for inhibition at 1.3 µM / inhibition at 4.1 µM / inhibition at 13 µM / inhibition at 41 µM / inhibition at 130 µM / inhibition at 410 µM: Influenza A virus, H3N2, read-out: % Plaque Reduction at Concentration Given
Text: More accurate quantitation of antiviral activity was achieved by incorporated of concentrations of the test compound varying from 1.3 x 10^-6M to 4.1 x 10^-4M into the agar overlay above the influenza A/Port Chalmers/1/73 (H3N2) virus infected MDCK cell monolayers. The % reduction in the number of virus induced plaques at each compound concentration is given below.

MDCK cell monolayers = details: diameter of zone with apparent cytotoxicity; 0.02 ml of 1 mg/ml solution in 6 mm well
[2] = system: influenza A/Port Chalmers/l/73 (H3N2) virus; assay: Diffusion test (plaque inhibition zone); format: cell-based; details: diameter of plaque-free zone, 0.02 ml of 1 mg/ml solution in 6 mm well, infected MDCK cell monolayers; for zone of inhibition at 1000 µg/mL: Influenza A virus, H3N2, read-out: Active Zone
Protocol: Diffusion Test. 10 mg/ml solutions of the compounds in water were diluted to a concentration of 1 mg/ml with Eagle's minimum essential medium and 0.02 ml introduced into wells 6mm in diameter cut into an agar layer above influenza A/Port Chalmers/l/73 (H3N2) virus infected MDCK cell monolayers. An infection level giving an even distribution of subconfluent plaques was used. The diameters of zones around the wells free from virus induced plaques (inhibition zones) and diameters of zones in which cytotoxicity was apparent are reported.

Compound | % Plaque Reduction at Concentration Given ([1]; 0.13 x 10^-5 M in agar overlay, 1.3 µM) [%] | % Plaque Reduction at Concentration Given ([1]; 0.41 x 10^-5 M in agar overlay, 4.1 µM) [%] | % Plaque Reduction at Concentration Given ([1]; 1.3 x 10^-5 M in agar overlay, 13 µM) [%] | % Plaque Reduction at Concentration Given ([1]; 4.1 x 10^-5 M in agar overlay, 41 µM) [%] | % Plaque Reduction at Concentration Given ([1]; 13 x 10^-5 M in agar overlay, 130 µM) [%] | % Plaque Reduction at Concentration Given ([1]; 41 x 10^-5 M in agar overlay, 410 µM) [%] | Toxic Zone (MDCK cell monolayers) [mm] | Active Zone [2] [mm] | inhibition at 1.3 µM ([1]; 0.13 x 10^-5 M in agar overlay) [%] | inhibition at 4.1 µM ([1]; 0.41 x 10^-5 M in agar overlay) [%] | inhibition at 13 µM ([1]; 1.3 x 10^-5 M in agar overlay) [%] | inhibition at 41 µM ([1]; 4.1 x 10^-5 M in agar overlay) [%] | inhibition at 130 µM ([1]; 13 x 10^-5 M in agar overlay) [%] | inhibition at 410 µM ([1]; 41 x 10^-5 M in agar overlay) [%] | zone of inhibition at 1000 µg/mL [2] [mm]
1-[β-D-(5'-succinyl-2',3'-carbonyl)ribofuranosyl]-3-carbamoyl-1,2,4-triazole amantadine salt [Compound 6] | 44 | 63 | 89 | 100 | 100 | 100 | 0 | 55 | – | – | – | – | – | – | –
NC(=O)c1ncn([C@@H]2O[C@H](CO)[C@@H](O)[C@H]2O)n1 [Compound 1, 1-β-D-ribofuranosyl-3-carbamoyl-1,2,4-triazole, reference compound] | – | – | – | – | – | – | 0 | – | 0 | 43 | 94 | 100 | 100 | 100 | 28
NC(=O)c1ncn([C@@H]2O[C@H](COC(=O)CCC(=O)O)[C@H]3OC(=O)O[C@H]32)n1 [Compound 5, 1-[β-D-(5'-succinyl-2',3'-carbonyl)ribofuranosyl]-3-carbamoyl-1,2,4,-triazole] | – | – | – | – | – | – | 0 | – | 0 | 0 | 0 | 0 | 0 | 0 | 17
